Target: GTPase KRas [G12C,C51S,C80L,C118S]/RAF proto-oncogene serine/threonine-protein kinase (Homo sapiens, UniProt P01116, C118S/C51S/C80L/G12C)
Assay: Inhibition of KRASG12C and cRAF Binding
Description: Compounds were diluted in 100% DMSO and each compound concentration was spotted at 200 nl/well onto low volume, white 384 well plates. […] Plates were incubated for 19-20 hours. A mixture of RBD and the AlphaScreen streptavidin donor and glutathione acceptor beads diluted in 25 mM Hepes, pH 7.4, 150 mM NaCl, 5 mM MgCl2, 0.01% TritonX-100 and 2% DMSO was then added at 10 ul/well and incubated for 60-90 minutes before the samples were read for emission at 570 nm after excitation of the donor beads at 680 nm. All incubations were performed at room temperature. […] IC50s were determined using nonlinear regression fit of [inhibitor]vs. response (4 parameters).

Chain of GTPase KRas [G12C,C51S,C80L,C118S]/RAF proto-oncogene serine/threonine-protein kinase (P01116 1-169 G12C/C51S/C80L/C118S): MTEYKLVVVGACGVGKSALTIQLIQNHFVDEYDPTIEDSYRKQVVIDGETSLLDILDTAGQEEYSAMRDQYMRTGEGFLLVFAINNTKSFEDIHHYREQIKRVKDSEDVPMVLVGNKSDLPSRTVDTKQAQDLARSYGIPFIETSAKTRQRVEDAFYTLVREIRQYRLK

C=CC(=O)[C@]12CCN(c3nc(OC[C@@H]4CCCN4C)nc4c3CCN(c3cccc5cccc(Cl)c35)C4)C[C@H]1C2 [US20250019387, Example 44]
IC50: < 10 nM
